Earlier results as cited in patent US20240307352A1, “SACUBITRIL VALSARTAN SODIUM SUSTAINED-RELEASE COMPOSITION, AND PREPARATION METHOD THEREFOR AND USE THEREOF” (SHANGHAI AURORA BIOTECHNOLOGY CO., LTD., priority 2021, published 2024).

System: patients with heart failure with reduced ejection fraction (HF-REF)
Settings: compared to enalapril-treated counterpart

Substance: octadecasodium hexa(4-{[(1S,3R)-1-([1,1′-biphenyl)-4-ylmethyl)-4-ethoxy-3-methyl-4-oxobutyl]amino}-4-oxobutyric acid) hexa(N-pentanoyl-N-{[2′-(1H-tetrazol-5-yl)biphenyl-4-yl]methyl}-L-valine)-hydrate (1/15) [LCZ696]
- Reduction in death risk: 20%
- Reduction in hospitalization risk: 21%
